Laboratory results reported in ChEMBL document CHEMBL1140598, “A review of anti-infective and anti-inflammatory chalcones” (Eur J Med Chem, 2007).
Converted amounts (≈) assume the structure as drawn.

Key:
[1] = test system: Human immunodeficiency virus; experiment: Antiviral activity against HIV; assay type: functional, organism-based; conditions: Human immunodeficiency virus 1
Plasmodium falciparum [2] = experiment: Inhibition of ring to schizont stage maturation in Plasmodium falciparum NF54 at 2 ug/mL; assay type: functional
[3] = test system: Staphylococcus haemolyticus; experiment: Antibacterial activity against Staphylococcus haemolyticus; assay type: functional
Staphylococcus aureus [4] = experiment: Antibacterial activity against Staphylococcus aureus; assay type: functional, organism-based
[5] = test system: Staphylococcus epidermidis; experiment: Antibacterial activity against Staphylococcus epidermidis; assay type: functional
Plasmodium falciparum [6] = experiment: Antimalarial activity against chloroquine-resistant Plasmodium falciparum Dd2; assay type: functional, organism-based
[7] = molecular target: Superoxide dismutase [Fe] (Plasmodium falciparum) (UniProt Q9TW89); experiment: Inhibition of Plasmodium falciparum recombinant superoxide dismutase at 50 uM
Superoxide dismutase [Fe] (Plasmodium falciparum), sequence (Q9TW89 whole entry): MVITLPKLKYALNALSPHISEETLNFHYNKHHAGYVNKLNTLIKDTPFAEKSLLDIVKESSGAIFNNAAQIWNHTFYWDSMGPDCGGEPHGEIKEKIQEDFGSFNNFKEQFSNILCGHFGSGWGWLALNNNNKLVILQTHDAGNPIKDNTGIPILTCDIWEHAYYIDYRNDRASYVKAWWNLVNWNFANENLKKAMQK

Plasmodium falciparum [8] = experiment: Antimalarial activity against chloroquine-sensitive Plasmodium falciparum HB3; assay type: functional, organism-based
Neutrophil [9] = experiment: Inhibition of fMLP/CB-stimulated release of beta-glucuronidase in rat neutrophils; assay type: functional, cell-based
Neutrophil [10] = experiment: Inhibition of fMLP/CB-stimulated release of lysozyme in rat neutrophils; assay type: functional, cell-based
Streptococcus mutans = experiment: Antibacterial activity against […]; assay type: functional
Bacillus subtilis = experiment: Antibacterial activity against Bacillus subtilis; assay type: functional
Enterococcus faecium = experiment: Antibacterial activity against Enterococcus faecium; assay type: functional
Staphylococcus aureus [11] = experiment: Antibacterial activity against methicillin-resistant Staphylococcus aureus ST28; assay type: functional
Mycobacterium xenopi = experiment: Antibacterial activity against Mycobacterium xenopi; assay type: functional
Enterococcus faecalis = experiment: Antibacterial activity against Enterococcus faecalis; assay type: functional
Leishmania donovani [12] = experiment: Inhibition of Leishmania donovani amastigotes in human monocyte-derived macrophages; assay type: functional, organism-based
[13] = test system: Lactiplantibacillus plantarum; experiment: Antibacterial activity against Lactobacillus plantarum; assay type: functional
Plasmodium falciparum [14] = experiment: Antiplasmodial activity against chloroquine-sensitive Plasmodium falciparum D6; assay type: functional, organism-based
Clostridium sporogenes = experiment: Antibacterial activity against Clostridium sporogenes; assay type: functional
Heyndrickxia coagulans = experiment: Antibacterial activity against Bacillus coagulans; assay type: functional
[15] = Inhibition of Leishmania donovani fumarate reductase in after 60 mins
[16] = Inhibition of Leishmania major NADH-cytochrome c reductase
Staphylococcus aureus [17] = experiment: Antibacterial activity against methicillin-sensitive Staphylococcus aureus Smith; assay type: functional
Helicobacter pylori = experiment: Growth inhibition of Helicobacter […]; assay type: functional
Bacillus cereus = experiment: Antibacterial activity against Bacillus cereus; assay type: functional
Staphylococcus aureus [18] = experiment: Antibacterial activity against methicillin-resistant Staphylococcus aureus K3; assay type: functional
[19] = Inhibition of Leishmania major NADH dehydrogenase
Mycobacterium marinum = experiment: Antibacterial activity against Mycobacterium marinum; assay type: functional
[20] = test system: Mycobacterium tuberculosis; experiment: Antibacterial activity against Mycobacterium tuberculosis; assay type: functional
[21] = Inhibition of Leishmania major succinate dehydrogenase in human PBMCs crude mitochondria after 60 mins
Leishmania major = experiment: Growth inhibition of Leishmania major promastigotes assessed as [3H]thymidine incorporation; assay type: functional, organism-based
Staphylococcus aureus [22] = experiment: Antibacterial activity against methicillin-resistant Staphylococcus aureus OM481; assay type: functional
Staphylococcus aureus [23] = experiment: Antibacterial activity against methicillin-resistant Staphylococcus aureus OM505; assay type: functional
[24] = Inhibition of Leishmania major NADH-dehydrogenase in human PBMCs crude mitochondria after 60 mins
[25] = test system: Lactobacillus acidophilus; experiment: Antibacterial activity against Lactobacillus acidophilus; assay type: functional
Plasmodium falciparum [26] = experiment: Antiplasmodial activity against chloroquine-resistant Plasmodium falciparum W2; assay type: functional, organism-based
Lactococcus lactis = experiment: Antibacterial activity against Streptococcus lactis; assay type: functional
[27] = test system: Geobacillus stearothermophilus; experiment: Antibacterial activity against Bacillus stearothermophilus; assay type: functional
Staphylococcus aureus [28] = experiment: Antibacterial activity against methicillin-sensitive Staphylococcus aureus FDA209P; assay type: functional
[29] = Inhibition of Leishmania major succinate dehydrogenase
[30] = Inhibition of Leishmania major succinate-cytochrome c reductase
Mycobacterium kansasii = experiment: Antibacterial activity against Mycobacterium kansasii; assay type: functional
Protease = Protease (Human immunodeficiency virus 1, UniProt Q9YQ12); experiment: Inhibition of HIV1 protease
Protease, sequence (Q9YQ12 whole entry): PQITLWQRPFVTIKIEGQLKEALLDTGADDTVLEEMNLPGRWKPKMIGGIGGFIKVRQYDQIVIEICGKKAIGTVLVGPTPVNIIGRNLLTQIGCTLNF

[31] = molecular target: Protease (Human immunodeficiency virus 1) (UniProt Q9YQ12); experiment: Inhibition of HIV1 protease at 50 ug/mL
Protease (Human immunodeficiency virus 1), sequence (Q9YQ12 as listed by the source): as the sequence (Q9YQ12 whole entry) above

Fusarium oxysporum = experiment: Antifungal activity against Fusarium oxysporum; assay type: functional
Colletotrichum truncatum = experiment: Antifungal activity against Colletotrichum capsici; assay type: functional
Rhizoctonia solani = experiment: Antifungal activity against Rhizoctonia solani; assay type: functional
Leishmania donovani [32] = experiment: Antileishmanial activity against Leishmania donovani promastigotes at 50 ug/mL; assay type: functional
Leishmania donovani [33] = experiment: Antileishmanial activity against Leishmania donovani amastigotes in mouse macrophages at 50 ug/mL; assay type: functional
Trypanosoma cruzi = experiment: Growth inhibition of Trypanosoma cruzi epimastigotes; assay type: functional, organism-based
Escherichia coli = experiment: Antibacterial activity against Escherichia coli; assay type: functional
Staphylococcus aureus [34] = experiment: Antibacterial activity against methicillin-resistant Staphylococcus aureus; assay type: functional, organism-based
[35] = Inhibition of LPS-stimulated nitric oxide formation in mouse microglial cells; assay type: functional, cell-based
Leishmania amazonensis [36] = experiment: Antileishmanial activity against Leishmania amazonensis promastigotes; assay type: functional; conditions: read-out: ED50 (the source's name)
Leishmania amazonensis [37] = experiment: Antileishmanial activity against Leishmania amazonensis intracellular amastigotes; assay type: functional; conditions: read-out: ED50 (the source's name)
[38] = test system: Cladosporium cladosporioides; experiment: Fungicidal activity against Cladosporium cladosporioides; assay type: functional
Trichophyton benhamiae = experiment: Antifungal activity against Trichophyton mentagrophytes; assay type: functional, Arthroderma benhamiae
Microsporum canis = experiment: Antifungal activity against Microsporum canis; assay type: functional
Microsporum = experiment: Antifungal activity against Microsporum gypseum; assay type: functional
Epidermophyton floccosum = experiment: Antifungal activity against Epidermophyton floccosum; assay type: functional
Trichophyton rubrum = experiment: Antifungal activity against Trichophyton rubrum; assay type: functional
Leishmania braziliensis = experiment: Growth inhibition of Leishmania braziliensis promastigotes; assay type: functional, organism-based
Plasmodium falciparum [39] = experiment: Inhibition of ring to schizont stage maturation in Plasmodium falciparum NF54 at 10 ug/mL; assay type: functional
Plasmodium falciparum [40] = experiment: Inhibition of ring to schizont stage maturation in Plasmodium falciparum NF54 at 50 ug/mL; assay type: functional
RAW [41] = experiment: Inhibition of nitric oxide production in LPS-stimulated mouse RAW 264.7 cells at 10 uM; assay type: functional
RAW [42] = experiment: Inhibition of prostaglandin E2 production in LPS-stimulated mouse RAW 264.7 cells at 10 uM; assay type: functional
Plasmodium falciparum [43] = experiment: Antiplasmodial activity against chloroquine-sensitive Plasmodium falciparum Dd2 by [3H]hypoxanthine incorporation; assay type: functional, organism-based
[44] = Inhibition of Leishmania donovani solubilized fumarate reductase
Plasmodium falciparum [45] = experiment: Antiplasmodial activity against chloroquine-sensitive Plasmodium falciparum 3D7 by [3H]hypoxanthine incorporation; assay type: functional, organism-based
[46] = test system: Human immunodeficiency virus 1; experiment: Inhibition of HIV1 p24 antigen production in human C8166 lymphocytes; assay type: functional, organism-based; conditions: Human immunodeficiency virus 1, C8166
Plasmodium falciparum [47] = experiment: Antiplasmodial activity against multiresistant Plasmodium falciparum Dd2 by [3H]hypoxanthine incorporation; assay type: functional, organism-based
Plasmodium falciparum [48] = experiment: Antiplasmodial activity against chloroquine-sensitive Plasmodium falciparum poW by [3H]hypoxanthine incorporation; assay type: functional, organism-based
[49] = test system: Human immunodeficiency virus 1; experiment: Antiviral activity against HIV1 3B assessed as inhibition of p24 antigen production in human PBMCs; assay type: functional, organism-based; conditions: Human immunodeficiency virus 1, 3B
[50] = test system: Human immunodeficiency virus 1; experiment: Inhibition of HIV1 reverse transcriptase production in human C8166 lymphocytes; assay type: functional, organism-based; conditions: Human immunodeficiency virus 1, C8166
Neutrophil [51] = experiment: Superoxide radical scavenging activity in stimulated human neutrophils; assay type: functional, cell-based
[52] = Superoxide radical scavenging activity by hypoxanthine / xanthine oxidase system; assay type: functional

COc1c(C)c(O)c(C(=O)/C=C(\O)c2ccccc2)c(O)c1C=O
EC50 [1]: 0.022 µg/mL (≈ 0.067 µM)

CC(C)=CCc1cc(C(=O)/C=C/c2ccc(O)cc2)c(O)c(CC=C(C)C)c1O [MEDICAGENIN]
inhibition at 2 µg/mL (Plasmodium falciparum [2]): 100%

O=C(/C=C/c1ccc(O)cc1)c1ccc(O)cc1O [ISOLIQUIRITIGENIN]
MIC [3]: 250 µg/mL (≈ 976 µM)
MIC (Staphylococcus aureus [4]): 250 µg/mL
MIC [5]: 250 µg/mL (≈ 976 µM)

CC(C)(C)c1ccc(C(=O)/C=C/c2ccc(Br)cc2)cc1
IC50 (Plasmodium falciparum [6]): 27 µM
inhibition [7]: 83%
IC50 (Plasmodium falciparum [8]): 37 µM

O=C(/C=C/c1ccccc1O)c1ccccc1O
IC50 (Neutrophil [9]): 1.6 µM
IC50 (Neutrophil [10]): 1.4 µM

C=CC(C)(C)c1cc(/C=C/C(=O)c2ccc(O)cc2)c(OC)cc1O [LICOAGROCHACONE A]
MIC (Streptococcus mutans): 5 µg/mL (≈ 14.8 µM)
MIC (Bacillus subtilis): 2 µg/mL (≈ 5.91 µM)
MIC (Enterococcus faecium): 6 µg/mL
MIC (Staphylococcus aureus [11]): 6.25 µg/mL (≈ 18.5 µM)
MIC (Mycobacterium xenopi): ≤ 20 µg/mL
MIC (Enterococcus faecalis): 6 µg/mL (≈ 17.7 µM)
IC50 (Leishmania donovani [12]): 0.65 µM
MIC [13]: 5 µg/mL (≈ 14.8 µM)
IC50 (Plasmodium falciparum [14]): 10.3 µM
MIC (Clostridium sporogenes): 8 µg/mL (≈ 23.6 µM)
MIC (Heyndrickxia coagulans): 2 µg/mL (≈ 5.91 µM)
IC50 [15]: 14 µM
IC50 [16]: 1980 µM
MIC (Staphylococcus aureus [17]): 3.13 µg/mL (≈ 9.25 µM)
MIC (Helicobacter pylori): 25 µg/mL (≈ 73.9 µM)
MIC (Bacillus cereus): 3 µg/mL (≈ 8.87 µM)
MIC (Staphylococcus aureus [18]): 6.25 µg/mL (≈ 18.5 µM)
IC50 [19]: 460 µM
MIC (Mycobacterium marinum): ≤ 20 µg/mL
MIC (Staphylococcus aureus [4]): 3 µg/mL
MIC [20]: ≤ 20 µg/mL
IC50 [21]: 1400 µM
IC50 (Leishmania major): 4 µM
MIC (Staphylococcus aureus [22]): 16 µg/mL (≈ 47.3 µM)
MIC (Staphylococcus aureus [23]): 16 µg/mL (≈ 47.3 µM)
IC50 [24]: 1400 µM
MIC [25]: 5 µg/mL (≈ 14.8 µM)
IC50 (Plasmodium falciparum [26]): 10.3 µM
MIC (Lactococcus lactis): 8 µg/mL (≈ 23.6 µM)
MIC [27]: 2 µg/mL (≈ 5.91 µM)
MIC (Staphylococcus aureus [28]): 16 µg/mL (≈ 47.3 µM)
IC50 [29]: 593 µM
IC50 [30]: 1520 µM
MIC (Mycobacterium kansasii): ≤ 20 µg/mL

COc1cc(O)cc(O)c1C(=O)/C=C/c1ccccc1 [CARDAMOMIN]
IC50 (Protease): 115 µM
inhibition [31]: 75.1%

O=C(/C(Br)=C(\Br)c1cccc([N+](=O)[O-])c1)c1cccc([N+](=O)[O-])c1
MIC (Fusarium oxysporum): 6.25 µg/mL (≈ 13.7 µM)
MIC (Colletotrichum truncatum): 6.25 µg/mL (≈ 13.7 µM)
MIC (Rhizoctonia solani): 6.25 µg/mL (≈ 13.7 µM)

CC1(C)C=Cc2c(ccc(C(=O)/C=C/c3ccc(O)cc3)c2O)O1
Activity (Leishmania donovani [32]): 84%
Activity (Leishmania donovani [33]): 74%

O=C(/C=C/c1ccc(Cl)cc1)c1ccccc1 [4-CHLORO CHALCONE]
IC50 (Trypanosoma cruzi): 21.9 µM

Cc1cc(C)cc(-c2ccc(N3CCNCC3)c(/C=C/C(=O)c3cccc(NCCN(C)C)c3)c2)c1
MIC (Enterococcus faecium): 5 µM
MIC (Escherichia coli): 5 µM (≈ 2.41 µg/mL)
MIC (Staphylococcus aureus [4]): 2 µM
MIC (Staphylococcus aureus [34]): 2 µM (≈ 0.965 µg/mL)

CCCCOc1ccc(OCCCC)c(C(=O)/C=C/c2ccc(Cl)cc2)c1
IC50 [35]: 0.7 µM

COc1cc(O)c(C(=O)/C=C/c2ccccc2)c(O)c1
EC50 (Leishmania amazonensis [36]): 0.5 µg/mL (≈ 1.85 µM)
EC50 (Leishmania amazonensis [37]): 24 µg/mL (≈ 88.8 µM)

CC1(C)CCc2c(O)ccc(C(=O)/C=C/c3ccc(O)cc3)c2O1
MIC [38]: 2 µg

COc1cccc(/C=C/C(=O)c2ccc(Br)cc2)c1
MIC (Trichophyton benhamiae): 3 µg/mL (≈ 9.46 µM)
MIC (Microsporum canis): 25 µg/mL (≈ 78.8 µM)
MIC (Microsporum): 1.5 µg/mL (≈ 4.73 µM)
MIC (Epidermophyton floccosum): 0.5 µg/mL (≈ 1.58 µM)
MIC (Trichophyton rubrum): 3 µg/mL (≈ 9.46 µM)

O=C(/C=C/c1ccccc1)c1ccccc1 [CHALCONE]
IC50 (Leishmania braziliensis): 13.7 µM

COc1cc(/C=C/C(=O)c2ccc(O)c(CC=C(C)C)c2O)ccc1O [CROTAORIXIN]
inhibition at 10 µg/mL (Plasmodium falciparum [39]): 100%
inhibition at 50 µg/mL (Plasmodium falciparum [40]): 100%

COc1cc(OC)c(/C=C/C(=O)c2ccccc2C(F)(F)F)c(OC)c1
inhibition at 10 µM (RAW [41]): 76.3%
inhibition at 10 µM (RAW [42]): 76.3%

CCCCOc1ccc(C(=O)/C=C/c2ccc(OC)cc2OC)cc1
IC50 (Plasmodium falciparum [43]): 14.8 µM
IC50 [44]: 118 µM
IC50 (Plasmodium falciparum [45]): 8.9 µM

COc1cc(O)c(CC=C(C)C)c(O)c1C(=O)/C=C/c1ccc(O)cc1 [XANTHOHUMOL]
EC50 [46]: 1.28 µg/mL (≈ 3.61 µM)
IC50 (Plasmodium falciparum [47]): 24 µM
IC50 (Plasmodium falciparum [48]): 8.2 µM
EC50 [49]: 20.7 µg/mL (≈ 58.5 µM)
EC50 [50]: 0.5 µg/mL (≈ 1.41 µM)

COc1ccc(C(=O)/C=C/c2ccc(N(C)C)cc2)cc1OC
IC50 (Neutrophil [51]): 0.1 µM
IC50 [52]: 0.3 µM
